PMC11435220, “Anticancer Activity of Imidazolyl Gold(I/III) Compounds in Non-Small Cell Lung Cancer Cell Lines” (Pharmaceuticals, 2024)

How the values were obtained:
[1] = system: human NSCLC cell lines with KRAS mutations; experiment: MTT assay, average across NSCLC cell lines with KRAS mutations; type: cell-based; conditions: 48 h, read-out: IC50 * averaged values
Method: (§1) NSCLC cell lines were obtained from the Hamon Center for Therapeutic Oncology Research (UT Southwestern Medical Center). IMR-90 human lung fibroblasts were from ATCC (CC-186). All cell lines were maintained and treated in RPMI medium (Cytiva (Shanghai, China), #SH30027), supplemented with 10% heat-inactivated FBS (Millipore Sigma (Darmstadt, Germany), F0394).
(§2) 5000–10,000 cells/0.1 mL/well were seeded in 96-well plates to achieve 70% confluence after 24 h. All drug stock solutions were prepared fresh in DMSO at a concentration of 10 mM. The day after cell plating, we added 0.1 mL of medium containing the appropriate drug dilutions. After 48 h of treatment, 10 μL of MTT solution (5 mg/mL) was added to each well. After 4 h incubation, the medium was aspirated, and the formazan salts dissolved in 200 μL DMSO/well for 10 min at 37 °C. The absorbance was read at 570 nm (OD 570 nm). Data are represented as mean ± SD of two independent experiments.
(§3) Statistical and data analysis was performed using GraphPad Prism (v10). IC50 values were calculated using a three-parameter non-linear regression model with log(inhibitor) vs. response. For the TxrR activity statistics, the groups were compared using a two-way ANOVA followed by Dunnett’s multiple comparisons with alpha = 0.05. The correlation between IC50 values and TxrR activity was achieved using Pearson correlation with alpha = 0.05.

[2] = system: TrxR in H522 cell lysates; experiment: Thioredoxin reductase activity in lysates of treated H522 cells; type: cell-based, human; conditions: for TrxR activity reduction / inhibition: H522, 24 h treatment, stated for both cell lines; for Mean Diff. TrxR activity vs. veh: H522 lysate, 24 h treatment at 5 μM
Method: (§4) The enzymatic activity of TrxR in the A549 and H522 cell lysates was measured using the TrxR assay Kit (Abcam ab83463) following the manufacturer’s instructions. This kit is based on the TxrR-mediated reduction of the colorless DTNB into TNB2—(yellow). Briefly, cells were plated to reach 70% confluence on a 100-mm dish in one day. They were treated with 5 μM of the gold compounds or the equivalent quantity of DMSO for 24 h. Then, cells were washed in PBS 1X, detached, and lysed in 100 μL of cold TrxR assay buffer supplemented with the Proteinase Inhibitor Cocktail. 20 μg and 40 μg of total proteins were used for the A549 and the H522, respectively. The DTNB substrate was added to samples with or without TrxR inhibitor (provided with the kit) in 96-well plates. The OD412 was measured soon after the substrate addition (A1) and then after 25, 60, 90, and 110 min (An) at 25 °C using a FLUOstar Omega Microplate Reader (BGM Labtech, Chicago, IL, USA). Data analysis was performed following the manufacturer’s instructions. The OD of TNB2, generated by TrxR in every condition, is:ΔA412 nm = (AnAB − AnINH) − (AB − A1INH) where AB is the assay buffer, and INH is the inhibitor. The TrxR activity is:(2) ΔB/Tn−T1×mg of protein lysate×sample dilution factor=(nmol/min)/mg=mU/mg where ΔB is the TNB amount calculated applying ΔA412 nm to TNB standard curve (in nmol), T1 is the time of the first reading (A1AB, and A1INH) (in min), Tn is the time of the second reading (AnAB and AnINH) (in min). The residual TxrR activity (%) was calculated by normalizing the TxrR activity for each compound with the matching vehicle values at every n time point.
as §3

H522 = experiment: MTT viability assay, H522; type: cell-based, human; conditions: mean ± span, 48 h treatment, cell line without KRAS mutation
Method: as §1, §2, §3

H460 = experiment: MTT viability assay, H460; type: cell-based, human; conditions: mean ± span, 48 h treatment, cell line with KRAS mutation
Method: as §1, §2, §3

HCC-44 = experiment: MTT viability assay, HCC-44; type: cell-based, human; conditions: mean ± span, 48 h treatment, cell line with KRAS mutation
Method: as §1, §2, §3

H1993 = experiment: MTT viability assay, H1993; type: cell-based, human; conditions: mean ± span, 48 h treatment, cell line without KRAS mutation
Method: as §1, §2, §3

H1792 = experiment: MTT viability assay, H1792; type: cell-based, human; conditions: mean ± span, 48 h treatment, cell line with KRAS mutation
Method: as §1, §2, §3

H1355 = experiment: MTT viability assay, H1355; type: cell-based, human; conditions: mean ± span, 48 h treatment, cell line with KRAS mutation
Method: as §1, §2, §3

H661 = experiment: MTT viability assay, H661; type: cell-based, human; conditions: mean ± span, 48 h treatment, cell line without KRAS mutation
Method: as §1, §2, §3

H1395 = experiment: MTT viability assay, H1395; type: cell-based, human; conditions: mean ± span, 48 h treatment, cell line without KRAS mutation
Method: as §1, §2, §3

A549 = experiment: MTT viability assay, A549; type: cell-based, human; conditions: mean ± span, 48 h treatment, cell line with KRAS mutation
Method: as §1, §2, §3

[3] = Solution stability by UV-visible spectra over time; type: physicochemical; conditions: for percent concentration reduction estimated from UV spectra: 100 µM solution, within an hour
Method: Stability studies were led by acquiring UV−visible spectra of 100 µM DMSO or methanol solutions of compounds 1∓8 over time (Figures S19–S29 in Supplementary Materials). […] The stability of NHC-AuX3 complexes (with X = Cl, compounds 1 and 2, with X = Br, compounds 5 and 6) was affected by the nature of both the substituents on the imidazolyl ligand and of the halide, showing a small decrease of the UV bands maxima in an hour. By analyzing the spectral data of compounds 1 and 2, a percent concentration reduction of about 4–5% was estimated within an hour, grading them eligible for biological tests. The partial instability may be attributed to the formation of cationic bis-carbeneAuCl2 species (Equation (1)), with the [bis-carbeneAuX2]^+ and the respective AuX2^−; these ions were actually detected as positive and negative ions in the ESI-MS spectra (see Figures S12 and S13). […] Additionally, the (+)ESI MS spectrum of the acetonitrile solution of compound 6 is particularly rich in positive ions (Figure S16). As concerns the mono-/bis-carbene formation, it is likely initiated by the large trans effect of the carbene ligands, which induces the chemical lability on the trans halide, triggers […], the formation of bis-carbeneAu(III) species, and AuX2^− or AuX4^− anions:2[NHC-AuX3] ⇔ [[(NHC)2AuX2] [AuX2^−] + 2X(1) […]
The stability of the samples 1-8 in DMSO solution was assayed by UV-visible spectroscopy. Spectra were acquired using the Shimadzu UV-2700i spectrophotometer, equipped with the Shimadzu CPS-100 Peltier, at 293 K. Unless diversely specified, 100 µM DMSO solutions of the 1-8 compounds were prepared and spectra were acquired each 10 minutes for a total of 60 minutes. The spectra obtained are reported as following.
Figure S19. UV-Visible Spectra acquired for complex 1.
Figure S20. UV-Visible Spectra acquired for complex 2. […]

[4] = system: TrxR in A549 cell lysates; experiment: Thioredoxin reductase activity in lysates of treated A549 cells; type: cell-based, human; conditions: for TrxR activity reduction / inhibition: A549, 24 h treatment, stated for both cell lines; for Mean Diff. TrxR activity vs. veh: A549 lysate, 24 h treatment at 5 μM
Method: as §4, §3

[5] = system: human NSCLC cell lines without KRAS mutations; experiment: MTT assay, average across NSCLC cell lines without KRAS mutations; type: cell-based; conditions: average across cell lines without KRAS mutations (H522, H661, H1395, H1993), 48 h, read-out: IC50 * averaged values
Method: as §1, §2, §3

| Compound | IC50 [1] | TrxR activity reduction / inhibition [2] | Mean Diff. TrxR activity vs. veh ([2]; reading at 25 min) | Mean Diff. TrxR activity vs. veh ([2]; reading at 60 min) | Mean Diff. TrxR activity vs. veh ([2]; reading at 90 min) | Mean Diff. TrxR activity vs. veh ([2]; reading at 110 min) | IC50 (H522) | IC50 (H460) | IC50 (HCC-44) | IC50 (H1993) | IC50 (H1792) | IC50 (H1355) | IC50 (H661) | IC50 (H1395) | IC50 (A549) | Mean Diff. TrxR activity vs. veh ([4]; reading at 25 min) | Mean Diff. TrxR activity vs. veh ([4]; reading at 60 min) | Mean Diff. TrxR activity vs. veh ([4]; reading at 90 min) | Mean Diff. TrxR activity vs. veh ([4]; reading at 110 min) | IC50 [5] | other results |
| --- | --- | --- | --- | --- | --- | --- | --- | --- | --- | --- | --- | --- | --- | --- | --- | --- | --- | --- | --- | --- | --- |
| Cn1cc[n+](C)[c]1[Au-]([Cl])([Cl])[Cl] [Compound 1] | 62 µM | 20–30% | 15.84% | −8.894% | −20.1% | −23.89% | 75 ± 0.89 µM | 52 ± 1.2 µM | 45 ± 0.25 µM | 37 ± 1.3 µM | 60 ± 1.4 µM | 41 ± 0.33 µM | 47 ± 1.1 µM | 47 ± 0.4 µM | > 100 µM | −16.73% | −13.1% | −26.55% | −32.38% | 52 µM | percent concentration reduction estimated from UV spectra [3]: 4–5%; TrxR activity reduction / inhibition [4]: 20–30% |
| Cn1cc[n+](C)[c]1[Au-]([Br])([Br])[Br] [Compound 5] | 59 µM | 30–40% | −35.55% | −39.68% | −41.1% | −45.26% | 52 ± 0.37 µM | > 100 µM | 32 ± 1.6 µM | 70 ± 1.6 µM | > 100 µM | 12 ± 0.72 µM | 42 ± 1.7 µM | 49 ± 0.11 µM | 49 ± 0.33 µM | −11.58% | −29.11% | −31.74% | −33.68% | 53 µM | stability in solution ([3]; UV-visible spectra over time, DMSO, methanol, PBS buffered solutions): least stable in solution; TrxR activity reduction / inhibition [4]: 30–40% |
| C[n+]1ccn(Cc2ccccc2)[c]1[Au-]([Cl])([Cl])[Cl] [Compound 2] | 41 µM | 20–30% | 3.864% | −19.16% | −23.38% | −31.46% | 53 ± 2.1 µM | 65 ± 2.2 µM | 26 ± 1.3 µM | 6.1 ± 0.76 µM | 24 ± 0.98 µM | 34 ± 1.4 µM | 45 ± 1.7 µM | 17 ± 0.8 µM | 56 ± 1.6 µM | −5.148% | −11.64% | −22.67% | −30.44% | 30 µM | percent concentration reduction estimated from UV spectra [3]: 4–5%; TrxR activity reduction / inhibition [4]: 20–30% |
| [bis-(1,3-dimethyl-imidazoly-2yl)]gold(I) dibromoaurate [Compound 3] | 46 µM |  | −44.05% | −47.07% | −47.31% | −50.17% | 15 ± 1.1 µM | 68 ± 0.1 µM | 10 ± 1.1 µM | 11 ± 0.96 µM | 50 ± 1.2 µM | 9.1 ± 1.03 µM | 27 ± 1.2 µM | 11 ± 0.63 µM | 91 ± 1.03 µM | −21.88% | −4.221% | −8.42% | −9.068% | 16 µM |  |
| C[n+]1ccn(Cc2ccccc2)[c]1[Au-][Br] [Compound 4] | 14 µM |  | 23.18% | 7.116% | −0.3654% | −18.72% | 5.3 ± 0.88 µM | 11 ± 1.2 µM | 14 ± 1.1 µM | 12 ± 1.03 µM | 16 ± 0.94 µM | 8.1 ± 0.66 µM | 7 ± 0.81 µM | 11 ± 0.88 µM | 19 ± 1 µM | −3.861% | −2.183% | −18.13% | −21.37% | 9 µM |  |
